Measured values published in patent US9259443B2, “Compositions and methods for the generation of platelets and methods of use thereof” (The Children's Hospital of Philadelphia, priority 2010, dated 2016).

Tests used:
NSG mice = experiment: Infusion of human platelets or human ex vivo-grown megakaryocytes into NSG mice; type: in vivo, mouse; conditions: for time of spike of platelets after infusion: NSG mice; for platelets per megakaryocyte: two million large cells
Protocol: FIG. 7A provides a graph of human platelets infused into immune-suppressed NOD/SCID/[…] NSG mice over time. FIG. 7B provides a graph of the percentage of human platelets over time after infusion of fetal liver megakaryocytes into NSG mice. FIG. 7C provides a graph of human platelets over time after infusion of dimethylfasudil (diMF; 5 μM), a Rho/ROCK1 kinase inhibitor, treated human fetal liver megakaryocytes (large cells) into NSG mice. FIG. 7D provides a graph of human platelets over time after infusion of human megakaryocytes (large cell) from CD34+ bone marrow cells into NSG mice. FIG. 7E provides a graph of human platelets over time after infusion of dimethylfasudil (2 μM)-treated human CD34+ bone marrow megakaryocytes (large cell) into NSG mice.
NSG mice (Shultz et al. (2007) Nat. Rev. Immunol., 7:118-130; Shultz et al. (2005) J. Immunol., 174:6477-89) were infused with human platelets. […] When human fetal liver (FL) megakaryocytes were infused into NSG mice, a spike of platelets was observed within 10 hours of infusion (FIG. 7B). Two million large cells infused yielded about 13 platelets per megakaryocyte.
To increase platelet production, dimethylfasudil (diMF), a Rho/ROCK1 kinase inhibitor, was tested for its ability to promote human FL megakaryocyte maturation. […] Further, the infusion of two million large cells yielded only about 6 platelets per megakaryocyte. Next, human-Megs (large) from bone marrow (BM) CD34+ cells were infused into NSG mice. […] Further, the infusion of two million large cells yielded about 70 platelets per megakaryocyte. When BM CD34+ Megs (large) were treated with DiMF (2 μm) and infused into NSG mice, a spike of platelets was observed immediately (FIG. 7E). Further, the infusion of two million large cells yielded only about 4 platelets per megakaryocyte.

hαIIb+ recipient mice = experiment: FL cells grown with metalloproteinase (ADAM17) inhibitors, infused into hαIIb+ mice, derived platelet half-life; type: in vivo, mouse
[1] = BM CD34+ Megs (large) treated with DiMF 2 μm
[2] = human FL-megakaryocytes (large) treated with DiMF 5 μm

## Cc1cncc2cccc(S(=O)(=O)N3CCCNC[C@@H]3C)c12 [DiMF, dimethylfasudil]
NSG mice; [1]
  time of spike of platelets after infusion: immediately
  platelets per megakaryocyte: about 4
NSG mice; [2]
  time of spike of platelets after infusion: within about one hour
  platelets per megakaryocyte: about 6

## CNC(=O)[C@H](Cc1c[nH]c2ccccc12)NC(=O)[C@@H](CC(=O)NO)CC(C)C [GM6001]
hαIIb+ recipient mice; FL cells grown with GM6001 100 μM
  change in derived platelet half-life: no change

## CC(C)C[C@H](CC(=O)NO)C(=O)N[C@@H](Cc1ccc2ccccc2c1)C(=O)N[C@@H](C)C(=O)NCCN [TAP-1]
hαIIb+ recipient mice; FL cells grown with TAP-1 10 μM
  change in derived platelet half-life: no change
